Source: patent US11857544B2, “Composition or method including (t)ew-7197 for treating or preventing corneal endothelial diseases” (THE DOSHISHA, priority 2017, dated 2024)

How the values were obtained:
Caspase 3/7 = Caspase 3/7 activity (Caspase-Glo 3/7 Assay) in TGF-β-stimulated iFECD; assay type: cell-based, human; settings: in the order of 0.01, 0.1, 1, and 10 μM
Description: were seeded on a 96-well plate at a ratio of 3×10^3 cells per well, and cultured until reaching confluence at 37° C. (5% CO2). DMEM+10% FBS+1% P/S was used as the medium. After 24 hours, the medium was removed. SB431542 (WAKO, 192-16541) and EW-7197 (Selleck Chemicals, 57530) were added so that the final concentration would each be 0.01, 0.1, 1, or 10 μM, and the medium was cultured for 24 hours. DMEM+2% FBS+1% P/S was used as the medium. After 24 hours, the medium was removed. 10 ng/ml of Transforming Growth Factor-132 Human recombinant (WAKO, 200-19911) and SB431542 were added so that the final concentration would be 0.01, 0.1, 1, and 10 μM, and the medium was cultured for 24 hours. DMEM+2% FBS+1% P/S was used as the medium. After 24 hours, the cell morphology was observed under a phase contrast microscope. After observation, Caspase 3/7 activity was measured using Caspase-Glo 3/7 Assay by the following procedures. The medium was discarded so that the amount would be 50 μl per well, and a Caspase Glo 3/7 Assay Reagent (mixture of Caspase-Glo 3/7 Assay Buffer and Caspase-Glo 3/7 Assay Substrate) (Promega, G8091) solution was added at 50 μl/well so that the ratio thereof to the medium would be 1:1. The process was hereinafter conducted without exposure to light. The mixture was mixed thoroughly using a shaker for 2 minutes at about 120 min^-1, and incubated for 40 minutes at room temperature. After the incubation, 80 μl was transferred to an Assay plate (Corning, 3912, Assay plate 96 well, white polystyrene), and absorbance was measured using a GloMax-Multi Detection System (Promega, E7051). A caspase inhibitor, i.e., 10μ MZ-VD-FMK (WAKO, 262-02061) was used as a positive control.

iFECD = assay: Cell survival rate (Cell Titer-Glo Luminescent Cell Viability Assay); assay type: cell-based, human; settings: iFECD; all concentrations of 0.01, 0.1, 1, and 10 μM; 48 hours
Description: were seeded on a 96-well plate at a ratio of 3×10^3 cells per well, and cultured until reaching confluence at 37° C. (5% CO2). DMEM+10% FBS+1% P/S was used as the medium. After 24 hours, the medium was removed. SB431542 (WAKO, 192-16541) and EW-7197 (Selleck Chemicals, 57530) were added so that the final concentration would each be 0.01, 0.1, 1, or 10 μM, and the medium was cultured for 48 hours. DMEM+2% FBS+1% P/S was used as the medium. After 24 hours, the cell morphology was observed under a phase contrast microscope. After observation, the cell survival rate was analyzed using Cell Titer-Glo Luminescent Cell Viability Assay by the following procedures. The medium was discarded so that the amount would be 50 μl per well, and Cell Titer-Glo Luminescent Cell Viability Assay solution (Promega, G7572) was added at 50 μl/well so that the ratio to the medium would be 1:1. The process was hereinafter conducted without exposure to light. The mixture was mixed thoroughly using a shaker for 2 minutes at about 120 min^-1, and incubated for 10 minutes. After the incubation, 80 μl was transferred to an Assay plate (Corning, 3912, Assay plate 96 well, white polystyrene), and absorbance was measured using a GloMax-Multi Detection System (Promega, E7051).

[1] = tested on: immortalized human corneal endothelial cells from a Fuchs' endothelial corneal dystrophy patient (iFECD); assay: Suppression of TGF-β-induced corneal endothelial cell disorder, observed under a phase contrast microscope; assay type: cell-based; settings: for effect of suppressing corneal endothelial cell disorder: Example 1, iFECD, 24 h pretreatment then 10 ng/ml TGF-β 24 h
Description: The medium was removed from a culture dish culturing immortalized human corneal endothelial cells from a Fuchs' endothelial corneal dystrophy patient (iFECD), and 1×PBS(-) preheated to 37° C. was added and washed. This was repeated twice. 1×PBS(-) was added again and the medium was incubated for 5 minutes at 37° C. (5% CO2). After removing the PBS(-), 0.05% Trypsin-EDTA (Nacalai Tesque, 32778-34) was added and incubated for 5 minutes at 37° C. (5% CO2). The medium was then suspended and centrifuged for 3 minutes at 1500 rpm to retrieve cells. DMEM (Nacalai Tesque, 08456-36)+10% FBS (Biowest, S1820-500)+1% P/S (Nacalai Tesque, 26252-94) was used as the medium. The immortalized human corneal endothelial cells from a Fuchs' endothelial corneal dystrophy patient (iFECD) were seeded on a 12-well plate at a ratio of 8.0×10^4 cells per well and cultured for 24 hours at 37° C. (5% CO2). DMEM+10% FBS+1% P/S was used as the medium. After 24 hours, the medium was exchanged and cultured again for 24 hours. DMEM+2% FBS+1% P/S was used as the medium. After 24 hours, the medium was removed. 10 ng/ml of Transforming Growth Factor-132 Human recombinant (WAKO, 200-19911) was added, and the medium was cultured for 24 hours. DMEM+2% FBS+1% P/S was used as the medium. After 24 hours, the cell morphology and apoptosis were observed under a phase contrast microscope. After […] were seeded on a 12-well plate and cultured for 24 hours, the medium was removed. SB431542 (WAKO, 192-16541) and EW-7197 (Selleck Chemicals, 57530) were added so that the final concentration would each be 0.1, 0.3, 1, 3, or 10 μM, and the medium was cultured for 24 hours. DMEM+2% FBS+1% P/S was used as the medium. After 24 hours, the medium was removed. 10 ng/ml of Transforming Growth Factor-132 Human recombinant (WAKO, 200-19911) as well as SB431542 and EW-7197 were added so that the final concentration would each be 0.1, 0.3, 1, 3, or 10 μM, and the medium was cultured for 24 hours. DMEM+2% FBS+1% P/S was used as the medium. After 24 hours, the cell morphology and apoptosis were observed under a phase contrast microscope. After […] were seeded on a 12-well plate at a ratio of 7.0×10^4 cells and cultured for 24 hours, the medium was removed. EW-7197 (Selleck Chemicals, 57530) was added so that the final concentration would be 0.001, 0.003, 0.01, 0.03, 0.1, 0.3, 1, 3, 10, or 30 μM, and the medium was cultured for 24 hours. DMEM+2% FBS+1% P/S was used as the medium. After 24 hours, the medium was removed. 10 ng/ml of Transforming Growth Factor-132 Human recombinant (WAKO, 200-19911) and EW-7197 were added so that the final concentration would be 0.001, 0.003, 0.01, 0.03, 0.1, 0.3, 1, 3, 10, or 30 μM, and the medium was cultured for 24 hours. DMEM+2% FBS+1% P/S was used as the medium. After 24 hours, the cell morphology and apoptosis were observed under a phase contrast microscope.

activity of Caspase 3/7 (Caspase 3/7): reduced
SMILES: NC(=O)c1ccc(-c2nc(-c3ccc4c(c3)OCO4)c(-c3ccccn3)[nH]2)cc1 [SB431542, reference compound]
cell survival rate compared to a control group (iFECD): a significant difference was not found | effect of suppressing corneal endothelial cell disorder ([1]; compound at 3 μM and 10 μM): suppressed | effect of suppressing corneal endothelial cell disorder ([1]; compound at 10 μM): effectively suppressed | effect of suppressing corneal endothelial disorders ([1]; summary statement, at sub-μM (1 μM to 0.1 μM)): not observed
